# Assay results from doi:10.1101/2025.02.17.638454, “Synergistic RAS-MAPK and AKT Activation in MYC-Driven Tumors via Adjacent PVT1 Rearrangements” (bioRxiv, 2025).
# Key:
# MYC [1] = experiment: Western blot of MYC in D458; format: cell-based, human; details: D458, stable knockdown of PVT1ts vs sh.Cntrl; n=3, unpaired t-test
# Experimental: For whole-cell lysate, the cell pellet was resuspended in RIPA buffer (Cell Signaling Technologies, Danvers, MA) supplemented with a protease inhibitor cocktail (Cell Signaling Technologies) and incubated on ice for 20 minutes. The lysate was then centrifuged at 14,000 revolutions/minute for 10 minutes at 4°C, and the supernatant was harvested. Protein concentration was quantified by BCA Protein Assay Kit (Thermo Fisher Scientific) as per kit protocol. Next, 20 μg of whole-cell lysate was electrophoresed on a 4%–20% gradient polyacrylamide gel with SDS (Bio-Rad, Hercules, CA) and electroblotted onto polyvinylidene difluoride membranes (Bio-Rad). Membranes were blocked in Tris-buffered saline with 5% nonfat milk and 0.1% Tween and probed with antibodies. Bound proteins were detected with horseradish-peroxidase–conjugated secondary antibodies (Cell Signaling Technologies) and SuperSignal West Femto (Thermo Fisher Scientific). Antibodies used were anti-c-MYC (Cell Signaling Technology, 5605, anti-Phospho-c-MYC (Ser62) (Cell Signaling Technology, 13748), anti-β ACTIN (Cell Signaling Technology, 8457), anti-Phospho-p44/42 (Erk1/2) (Thr202/Tyr204) (Cell Signaling Technology, 4370), anti-p44/42 (Erk1/2) (Cell Signaling Technology, 4695), anti-Phospho-MEK1/2 (Ser217/221) (Cell Signaling Technology, 9154), anti-MEK1/2 (Cell Signaling Technology, 9122), anti-Phospho-p90RSK (Ser380) (Cell Signaling Technology, 11989), anti-RSK1/RSK2/RSK3 (Cell Signaling Technology, 9355), Anti-Rabbit IgG, HRP-linked Antibody (Cell Signaling Technology, 7074). Anti-FFX (Firefox) monoclonal antibodies were custom produced by Proteintech using FFX residues 13–104 as epitope.
# The HNB ORF and eGFP (control) were cloned in an inducible lentivirus expression, TRE-gateway plasmid (pLIX_403, Addgene, #41395). Lentivirus was produced in HEK293T cells using the protocol described above. D458, NCI-H1792 and COLO 320DM cells were transfected with inducible HNB lentivirus and selected with 1 μg/mL concentration of Puromycin. Selected cells were seeded at a concentration of 4 × 10^5 cells per well. After 24 hours of seeding, the cells were treated with 1 μg/mL Doxycycline for 48 hours. The cells were then lysed using RIPA buffer and 1X protease inhibitor cocktail. The protein lysates were collected and quantified using the previously described protocol. 20 μg of whole-cell lysate was electrophoresed on a 4%–20% gradient polyacrylamide gel with SDS (Bio-Rad, Hercules, CA) and electroblotted onto polyvinylidene difluoride membranes (Bio-Rad). […] Bound proteins were detected with horseradish-peroxidase–conjugated secondary antibodies (Cell Signaling Technologies) and SuperSignal West Femto (Thermo Fisher Scientific). […]
# D458 cells [2] = experiment: Proliferation assay D458; format: cell-based, human; details: D458, stable knockdown of PVT1ts vs sh.Cntrl; two-way ANOVA
# D458 cells [3] = experiment: Orthotopic transplantation of D458 into brains of immunocompromised mice; format: in vivo; details: D458 sh.RNA1-PVT1ts vs sh.Cntrl in mouse brain; bioluminescence day 9, 14, 21; n=10 each, unpaired t-test
# Experimental: All animal procedures were conducted in accordance with the guidelines established by the Institutional Animal Care and Use Committee of Sanford Burnham Prebys Medical Discovery Institute. Efforts were made to minimize animal suffering and to reduce the number of animals used as per the guidelines of AAALAC International and a Multiple Project Assurance A3053–1 is on file in the OLAW, DHHS.
# DU-145 cells = experiment: Proliferation assay DU-145; format: cell-based, human; details: DU-145, si.PVT1ts vs si_ctrl; n=3, two-way ANOVA
# Excerpt: (§1) Cancer cell lines: COLO-320DM, SK-PN-DW, U2OS, BxPC-3, DU145, SKBR-3 and, NCI-H1792 were obtained from American Type Culture Collection (Rockville, MD) and grown in their required growth medium per the American Type Culture Collection description. D458 and MB002 were obtained from Dr. Michael Taylor’s lab at SickKids hospital, Toronto. Cell line identity for the master stocks were verified by STR genotyping (IDEXX BioResearch)
# (§2) Supplementary Figure 14: Analysis of Cell Proliferation in MYC/PVT1 Neutral Cell Lines
# (§3) (U2OS, BxPC-3, DU-145) following Transfection with si_PVT1ts or si_ctrl: Each experiment
# (§4) was performed in triplicate (n=3), and statistical significance was determined using two-way
# (§5) ANOVA (P values indicated)
# (§6) .CC-BY 4.0 International licenseavailable under a
# (§7) (which was not certified by peer review) is the author/funder, who has granted bioRxiv a license to display the preprint in perpetuity. It is made
# (§8) The copyright holder for this preprintthis version posted February 22, 2025.; https://doi.org/10.1101/2025.02.17.638454doi: bioRxiv preprint […]
# MYC [4] = experiment: Western blot of MYC in DU-145; format: cell-based, human; details: DU-145, si.PVT1ts vs si.Ctrl; n=3, unpaired t-test
# Experimental: (§9) For whole-cell lysate, the cell pellet was resuspended in RIPA buffer (Cell Signaling Technologies, Danvers, MA) supplemented with a protease inhibitor cocktail (Cell Signaling Technologies) and incubated on ice for 20 minutes. The lysate was then centrifuged at 14,000 revolutions/minute for 10 minutes at 4°C, and the supernatant was harvested. Protein concentration was quantified by BCA Protein Assay Kit (Thermo Fisher Scientific) as per kit protocol. Next, 20 μg of whole-cell lysate was electrophoresed on a 4%–20% gradient polyacrylamide gel with SDS (Bio-Rad, Hercules, CA) and electroblotted onto polyvinylidene difluoride membranes (Bio-Rad). Membranes were blocked in Tris-buffered saline with 5% nonfat milk and 0.1% Tween and probed with antibodies. Bound proteins were detected with horseradish-peroxidase–conjugated secondary antibodies (Cell Signaling Technologies) and SuperSignal West Femto (Thermo Fisher Scientific). […]
# BxPC-3 cells = experiment: Proliferation assay BxPC-3; format: cell-based, human; details: BxPC-3, si.PVT1ts vs si_ctrl; n=3, two-way ANOVA
# Excerpt: as §1, §2, §3, §4, §5, §6, §7, §8
# MYC [5] = experiment: Western blot of MYC in U2OS; format: cell-based, human; details: si.PVT1ts vs si.Ctrl, n=3, unpaired t-test
# Experimental: as §9
# Supplementary Figure 10: FFX protein augments MYC expression (A) Western blot analysis of MYC expression in U2OS cells ectopically transduced with constructs expressing GFP (control) or FFX. […] (C&D) Western blot analysis and quantification of MYC expression in U2OS cells transduced with GFP (control), FFX, FFX(CO), and FFX ATG>TGA. […]
# U2OS cells = experiment: Proliferation assay U2OS; format: cell-based, human; details: si.PVT1ts vs si_ctrl, n=3, two-way ANOVA
# Excerpt: as §1, §2, §3, §4, §5, §6, §7, §8
# MYC [6] = experiment: Western blot of MYC in BxPC-3; format: cell-based, human; details: BxPC-3, si.PVT1ts vs si.Ctrl; n=3, unpaired t-test
# Experimental: as §9
Substance,MYC protein levels (MYC [1]),cellular proliferation (D458 cells [2]),tumor growth after orthotopic injection (D458 cells [3]),cellular proliferation (DU-145 cells),MYC protein levels (MYC [4]),cellular proliferation (BxPC-3 cells),MYC protein levels (MYC [5]),cellular proliferation (U2OS cells),MYC protein levels (MYC [6])
"shRNA1-PVT1ts: shRNA against PVT1ts, CCGGGGACAGCTTCAACCCATTACG CTCGAGCGTAATGGGTTGAAGCTGTCCTTTTTG (CCGGGGACAGCTTCAACCCATTACGCTCGAGCGTAATGGGTTGAAGCTGTCCTTTTTG)",increased proliferation (Figure 4D) and MYC protein levels,increased proliferation,grew significantly more aggressively than controls,–,–,–,–,–,–
"shRNA2-PVT1ts: shRNA against PVT1ts, CCGGACCTATGAGCTTTGAATAATT CAAGAGATTATTCAAAGCTCATAGGTTTTTT (CCGGACCTATGAGCTTTGAATAATTCAAGAGATTATTCAAAGCTCATAGGTTTTTT)",increased proliferation (Figure 4D) and MYC protein levels,increased proliferation,–,–,–,–,–,–,–
"si.PVT1ts: siRNA targeting variants containing exons 7–9, 5’-ACCUAUGAGCUUUGAAUAA-3’ (other strand not given here)",–,–,–,proliferate faster,increase in MYC protein levels,proliferate faster,increase in MYC protein levels,proliferate faster,increase in MYC protein levels
